Assay results reported in the NIST ThermoML archive (doi:10.1016/j.jct.2014.05.016).
Numbers after ± are expanded uncertainties.

Columns and labels:
[1] = 100 kPa, Liquid; for viscosity: Concentric cylinders viscometry; for mass density: Vibrating tube method
[2] = xn = mol fraction of the nth substance listed; conditions: 100 kPa, Liquid; for viscosity: Concentric cylinders viscometry; for mass density: Vibrating tube method

C[n+]1ccn(CCO)c1.F[B-](F)(F)F [1-(2-hydroxyethyl)-3-methylimidazolium tetrafluoroborate]
[1]
Conditions	mass density [kg/m3]	viscosity [mPa·s]
293.15 K	1362.4 ± 1.1	153.6 ± 12
298.15 K	1358.7 ± 1.1	115.1 ± 9.3
303.15 K	1354.8 ± 1.1	87.98 ± 7.1
308.15 K	1351.2 ± 1.1	68.59 ± 5.5
313.15 K	1347.4 ± 1.1	54.81 ± 4.4
318.15 K	1343.7 ± 1.1	44.44 ± 3.6
323.15 K	1340.1 ± 1.1	36.5 ± 2.9
328.15 K	1336.4 ± 1.1	30.46 ± 2.4
333.15 K	1332.8 ± 1.1	25.73 ± 2.1
338.15 K	1329.2 ± 1.1	21.98 ± 1.8
343.15 K	1325.5 ± 1.1	18.95 ± 1.5

CCCCn1cc[n+](C)c1.F[B-](F)(F)F [1-butyl-3-methylimidazolium tetrafluoroborate]
[1]
Conditions	mass density [kg/m3]	viscosity [mPa·s]
293.15 K	1204 ± 1.1	141.1 ± 12
298.15 K	1200.5 ± 1.1	107.5 ± 8.7
303.15 K	1197 ± 1.1	83.48 ± 6.7
308.15 K	1193.4 ± 1.1	65.97 ± 5.3
313.15 K	1189.9 ± 1.1	53 ± 4.2
318.15 K	1186.3 ± 1.1	43.21 ± 3.5
323.15 K	1182.8 ± 1.1	35.7 ± 2.9
328.15 K	1179.3 ± 1.1	29.86 ± 2.4
333.15 K	1175.8 ± 1.1	25.26 ± 2
338.15 K	1172.3 ± 1.1	21.59 ± 1.7
343.15 K	1168.9 ± 1.1	18.62 ± 1.5

CCCC[n+]1ccccc1.F[B-](F)(F)F [1-butylpyridinium tetrafluoroborate]
[1]
Conditions	mass density [kg/m3]	viscosity [mPa·s]
293.15 K	1216.6 ± 1.1	228.9 ± 19
298.15 K	1213.1 ± 1.1	166.9 ± 14
303.15 K	1209.6 ± 1.1	124.5 ± 10
308.15 K	1206.2 ± 1.1	94.97 ± 7.6
313.15 K	1202.8 ± 1.1	73.94 ± 5.9
318.15 K	1199.4 ± 1.1	58.64 ± 4.7
323.15 K	1196 ± 1.1	47.29 ± 3.8
328.15 K	1192.6 ± 1.1	38.71 ± 3.1
333.15 K	1189.2 ± 1.1	32.12 ± 2.6
338.15 K	1185.8 ± 1.1	26.98 ± 2.2
343.15 K	1182.5 ± 1.1	22.97 ± 1.8

CCCCn1cc[n+](C)c1.F[B-](F)(F)F [1-butyl-3-methylimidazolium tetrafluoroborate] + C[n+]1ccn(CCO)c1.F[B-](F)(F)F
[2], x2 = 0
Conditions	mass density [kg/m3]	viscosity [mPa·s]
293.15 K	1204 ± 1.1	141.1 ± 12
298.15 K	1200.5 ± 1.1	107.5 ± 8.7
303.15 K	1197 ± 1.1	83.48 ± 6.7
308.15 K	1193.4 ± 1.1	65.97 ± 5.3
313.15 K	1189.9 ± 1.1	53 ± 4.2
318.15 K	1186.3 ± 1.1	43.21 ± 3.5
323.15 K	1182.8 ± 1.1	35.7 ± 2.9
328.15 K	1179.3 ± 1.1	29.86 ± 2.4
333.15 K	1175.8 ± 1.1	25.26 ± 2
338.15 K	1172.3 ± 1.1	21.59 ± 1.7
343.15 K	1168.9 ± 1.1	18.62 ± 1.5

CCCC[n+]1ccccc1.F[B-](F)(F)F [1-butylpyridinium tetrafluoroborate] + C[n+]1ccn(CCO)c1.F[B-](F)(F)F
[2], x2 = 0
Conditions	mass density [kg/m3]	viscosity [mPa·s]
293.15 K	1216.6 ± 1.1	228.9 ± 19
298.15 K	1213.1 ± 1.1	166.9 ± 14
303.15 K	1209.6 ± 1.1	124.5 ± 10
308.15 K	1206.2 ± 1.1	94.97 ± 7.6
313.15 K	1202.8 ± 1.1	73.94 ± 5.9
318.15 K	1199.4 ± 1.1	58.64 ± 4.7
323.15 K	1196 ± 1.1	47.29 ± 3.8
328.15 K	1192.6 ± 1.1	38.71 ± 3.1
333.15 K	1189.2 ± 1.1	32.12 ± 2.6
338.15 K	1185.8 ± 1.1	26.98 ± 2.2
343.15 K	1182.5 ± 1.1	22.97 ± 1.8

CCCCn1cc[n+](C)c1.F[B-](F)(F)F [1-butyl-3-methylimidazolium tetrafluoroborate] + CCCC[n+]1ccccc1.F[B-](F)(F)F
[2], x1 = 1
Conditions	mass density [kg/m3]	viscosity [mPa·s]
293.15 K	1204 ± 1.1	141.1 ± 12
298.15 K	1200.5 ± 1.1	107.5 ± 8.7
303.15 K	1197 ± 1.1	83.48 ± 6.7
308.15 K	1193.4 ± 1.1	65.97 ± 5.3
313.15 K	1189.9 ± 1.1	53 ± 4.2
318.15 K	1186.3 ± 1.1	43.21 ± 3.5
323.15 K	1182.8 ± 1.1	35.7 ± 2.9
328.15 K	1179.3 ± 1.1	29.86 ± 2.4
333.15 K	1175.8 ± 1.1	25.26 ± 2
338.15 K	1172.3 ± 1.1	21.59 ± 1.7
343.15 K	1168.9 ± 1.1	18.62 ± 1.5
